Reference: patent US8178658B2 (Dow AgroSciences, LLC, priority 2008, dated 2012)
Read-outs that look alike come from different tables or passages of the source.

Experiments:
[1] = tested on: beet armyworm (BAW; Spodoptera exigua: Lepidoptera); experiment: 128-well diet tray assay on beet armyworm (BAW 50); type: in vivo; settings: for pest or weed control at 50 µg/cm2, 50 µg/cm2: Spodoptera exigua, 144 h, read-out: BAW 50 ug/cm2
Outline: (§1)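 Mortality is the read-out for both formats, scored against a 50% cut-off. Microplate wells received eggs over diet carrying 12 μg test compound, kept in darkness at 29° C for 6 d, six replicates averaged. Diet-tray wells held second instar larvae on diet at 50 μg/cm^2, kept 6 d at 25° C under 14:10 photoperiod.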

[2] = tested on: beet armyworm (BAW; Spodoptera exigua: Lepidoptera); experiment: 96-well microtiter plate-based high throughput (HTS) diet bioassay on beet armyworm (BAW HTS); type: in vivo; settings: for pest or weed control at 12 µg/well, 12 µg/well: Spodoptera exigua, 144 h, read-out: BAW HTS
Outline: as §1

[3] = 128-well diet tray assay, 50 μg/cm^2 of test compound on diet, second instar BAW larvae, mortality class
[4] = 96-well HTS diet assay, BAW eggs, 12 μg test compound per well, mortality at 6 d post-treatment, mortality class
[5] = 96-well microtiter plate HTS diet assay, 12 μg test compound per well, BAW eggs, mortality at 6 d post-treatment, mortality class
[6] = 96-well HTS diet bioassay, BAW eggs, 12 μg test compound per well, mortality at 6 d post-treatment, mortality class

Row | SMILES | BAW 50 ug/cm2 [1, 3] | BAW HTS [2, 4] | BAW HTS [2, 5] | BAW HTS [2, 6] | further results
1 | CO[C@@H]1[C@@H](OC)[C@H](C)O[C@@H](OC(=O)Nc2ccc(-c3nc(C)n(-c4ccc(OC(F)(F)F)cc4)n3)cc2)[C@@H]1OC [Compound 194] | A (the compound was tested and at least 50 percent mortality was observed) | A (the compound was tested and at least 50 percent mortality was observed) | A (the compound was tested and at least 50 percent mortality was observed) |  | 
2 | COC1CC(OC(=O)Nc2ccc(-c3ncn(-c4ccc(OC(F)(F)C(F)(F)F)cc4)n3)cc2)OC(C)C1O (mixture of isomers) [Compound 244] | A (the compound was tested and at least 50 percent mortality was observed) | B (either (1) the compound was tested and less than 50 percent mortality was observed or (2) the compound was not tested) | B (either (1) the compound was tested and less than 50 percent mortality was observed or (2) the compound was not tested) |  | 
3 | CCO[C@@H]1[C@@H](OC)[C@H](C)O[C@@H](OC(=O)Nc2ccc(C3=NN(c4ccc(OC(F)(F)C(F)(F)F)cc4)CC3)cc2)[C@@H]1OC [Compound 179] | A (the compound was tested and at least 50 percent mortality was observed) | B (either (1) the compound was tested and less than 50 percent mortality was observed or (2) the compound was not tested) | B (either (1) the compound was tested and less than 50 percent mortality was observed or (2) the compound was not tested) |  | 
4 | C=CCN(C(=O)O[C@@H]1O[C@@H](C)[C@H](OC)[C@@H](OCC)[C@H]1OC)c1ccc(-c2ncn(-c3ccc(OC(F)(F)C(F)(F)F)cc3)n2)cc1 [Compound 256, allyl {4-[1-(4-pentafluoroethoxy-phenyl)-1H-[1,2,4]triazol-3-yl]-phenyl}-carbamic acid (2S,3R,4R,5S,6S)-4-ethoxy-3,5-dimethoxy-6-methyl-tetrahydropyran-2-yl ester] | A (the compound was tested and at least 50 percent mortality was observed) |  | A (the compound was tested and at least 50 percent mortality was observed) |  | pest or weed control at 50 µg/cm2, 50 µg/cm2 [1]: > 50%; pest or weed control at 12 µg/well, 12 µg/well [2]: > 50%
5 | COC1C(C)OC(ON=C(C)c2cccc(-c3cn(-c4ccc(OC(F)(F)F)cc4)cn3)c2)C(OC)C1OC (centres unmarked) [Compound 166] | A (the compound was tested and at least 50 percent mortality was observed) | B (either (1) the compound was tested and less than 50 percent mortality was observed or (2) the compound was not tested) | B (either (1) the compound was tested and less than 50 percent mortality was observed or (2) the compound was not tested) |  | 
6 | COC1C(C)OC(ON=Cc2ccc(-c3cn(-c4nc(F)c(F)c(F)c4F)cn3)cc2)C(OC)C1OC (centres unmarked) [Compound 38] | A (the compound was tested and at least 50 percent mortality was observed) |  | B (either (1) the compound was tested and less than 50 percent mortality was observed or (2) the compound was not tested) | B (either (1) the compound was tested and less than 50 percent mortality was observed or (2) the compound was not tested) | 
7 | CCOC1C(OC)C(C)OC(ON=Cc2ccc(-c3ncn(-c4ccc(OC(F)(F)C(F)(F)Br)cc4)n3)cc2)C1OC (centres unmarked) [Compound 124] | A (the compound was tested and at least 50 percent mortality was observed) |  | B (either (1) the compound was tested and less than 50 percent mortality was observed or (2) the compound was not tested) | B (either (1) the compound was tested and less than 50 percent mortality was observed or (2) the compound was not tested) | 
8 | CO[C@@H]1[C@@H](OC)[C@H](C)O[C@@H](OC(=O)Nc2ccc(-c3cn(-c4ccc(OC(F)(F)F)cc4)cn3)cc2)[C@@H]1OC [Compound 173] | A (the compound was tested and at least 50 percent mortality was observed) | A (the compound was tested and at least 50 percent mortality was observed) | A (the compound was tested and at least 50 percent mortality was observed) |  | 
9 | CCCCO[C@@H]1[C@@H](OC)[C@H](C)O[C@H](OC(=O)Nc2ccc(-n3cnc(-c4ccc(C(F)(F)F)cc4)n3)cc2)[C@@H]1OC [Compound 199] | A (the compound was tested and at least 50 percent mortality was observed) | A (the compound was tested and at least 50 percent mortality was observed) | A (the compound was tested and at least 50 percent mortality was observed) |  | 
10 | CO[C@@H]1[C@@H](OC)[C@H](C)O[C@@H](O/N=C/c2ccc(-c3ncn(-c4ccc(C(F)(F)F)cc4)n3)cc2)[C@@H]1OC [Compound 80] | A (the compound was tested and at least 50 percent mortality was observed) |  | A (the compound was tested and at least 50 percent mortality was observed) | A (the compound was tested and at least 50 percent mortality was observed) | 
11 | COC1C(C)OC(ON=Cc2ccc(-c3cn(-c4ccc(OCC(F)(F)F)cc4)cn3)cc2)C(OC)C1OC (centres unmarked) [Compound 37] | A (the compound was tested and at least 50 percent mortality was observed) |  | B (either (1) the compound was tested and less than 50 percent mortality was observed or (2) the compound was not tested) | B (either (1) the compound was tested and less than 50 percent mortality was observed or (2) the compound was not tested) | 
12 | CCOC1C(OC)C(C)OC(ON=Cc2ccc(C3NC(c4ccc(OC(F)(F)F)cc4)=NO3)cc2)C1OC (mixture of isomers) [Compound 130] | A (the compound was tested and at least 50 percent mortality was observed) |  | A (the compound was tested and at least 50 percent mortality was observed) | A (the compound was tested and at least 50 percent mortality was observed) | 
13 | COC1C(C)OC(ON=Cc2ccc(-c3cn(-c4cccc(Cl)c4C#N)cn3)cc2)C(OC)C1OC (centres unmarked) [Compound 17] | B (either (1) the compound was tested and less than 50 percent mortality was observed or (2) the compound was not tested) |  | A (the compound was tested and at least 50 percent mortality was observed) | A (the compound was tested and at least 50 percent mortality was observed) | 
14 | COC1C(C)OC(ON=Cc2ccc(-c3ncnc(-c4ccc(OC(F)(F)F)cc4)n3)cc2)C(OC)C1OC (centres unmarked) [Compound 158] | A (the compound was tested and at least 50 percent mortality was observed) | A (the compound was tested and at least 50 percent mortality was observed) | A (the compound was tested and at least 50 percent mortality was observed) |  | 
15 | CO[C@@H]1[C@@H](OC)[C@H](C)O[C@@H](O/N=C/c2ccc(-c3cn(-c4ccc(OC(F)(F)F)cc4)cn3)cc2)[C@@H]1OC [Compound 26, 4-[1-(4-Trifluoromethoxyphenyl)-1H-imidazol-4-yl]-benzaldehyde O-((2S,3R,4R,5S,6S)-3,4,5-trimethoxy-6-methyl-tetrahydropyran-2-yl)-oxime] |  |  |  | A (the compound was tested and at least 50 percent mortality was observed) | BAW 50 ug/cm2 ([1]; 128-well diet tray assay, second instar BAW larvae, 50 μg/cm2 of test compound on diet, mortality class): A (the compound was tested and at least 50 percent mortality was observed); pest or weed control at 50 µg/cm2, 50 µg/cm2 [1, 3]: > 50%; pest or weed control at 12 µg/well, 12 µg/well [2, 5]: > 50%
